Data set [1] relates to Oxyuranus scutellatus venom. In words: Snake venom study, Oxyuranus scutellatus severe neurotoxicity, topical treatment. It is filed as in vivo. The conditions noted are these: individual mice #1-#4; in 80% DMSO/20% ethanol in <50% 2.5%/2.5% lidocaine/prilocaine cream +/- petrolatum cover. The source says:
Additional studies used historical controls from earlier studies with venom doses from same lots:
Oxyuranus scutellatus severe neurotoxicity and 3-(5′-benzyl-2′-carbamoyl-[1,1′-biphenyl]-3-yl)-2-methylpropanoic acid as the racemic mixture in 80% DMSO/20% ethanol in <50% 2.5%/2.5% lidocaine/prilocaine cream+/−petrolatum cover (1 each).

Data set [2] can be described thus: Varespladib DMSO/ethanol pad applied to simulated viper bite on the inventor's calf. It is filed as in vivo, human. The conditions noted are these: 75 mg/mL in DMSO/ethanol, 2 mL on absorbent pad containing 4% lidocaine; patch applied 24 hours. The method, then: The free-acid of varespladib […] was dissolved at 100 mg/mL in DMSO, then diluted with ethanol to 75 mg/mL and 2 mL applied to an absorbent pad containing 4% lidocaine and applied to a simulated viper bite on the inventor's calf applied by penetration to 1 cm with 18 g hypodermic needles similar in depth to what would be experienced with a large viper's bite.

Several values for one entry are separate records, joined by “and”; a condition that tells them apart may be missing. Equal values may be shown once.

Turning to `CC(Cc1cccc(-c2cc(Cc3ccccc3)ccc2C(N)=O)c1)C(=O)O` (racemic) [3-(5′-benzyl-2′-carbamoyl-[1,1′-biphenyl]-3-yl)-2-methylpropanoic acid], the Cessation of breathing in data set [1] is 64 min and 44 min and 104 min and 111 min.
As for `CCc1c(C(=O)C(N)=O)c2c(OCC(=O)O)cccc2n1Cc1ccccc1` [varespladib], the “pain, discomfort or redness at wounded area” value in data set [2] is recorded as “no pain, discomfort or redness”.
